pIC50: −log10 of the molar value.
Assays:
Test in all cases: In vitro MMP inhibition, IC50 determination (fluorogenic substrate I)
Format in all cases: biochemical
Details in all cases: value outside parentheses (Ki in parenthesis)
Human recombinant MMP-1 = molecular target: T1, Human recombinant MMP-1 (Homo sapiens, UniProt P03956)
T1 construct: made in house; host or cells: MMP-1-transfected HT-1080 cells (spent media)
T1 sequence (P03956 100-469): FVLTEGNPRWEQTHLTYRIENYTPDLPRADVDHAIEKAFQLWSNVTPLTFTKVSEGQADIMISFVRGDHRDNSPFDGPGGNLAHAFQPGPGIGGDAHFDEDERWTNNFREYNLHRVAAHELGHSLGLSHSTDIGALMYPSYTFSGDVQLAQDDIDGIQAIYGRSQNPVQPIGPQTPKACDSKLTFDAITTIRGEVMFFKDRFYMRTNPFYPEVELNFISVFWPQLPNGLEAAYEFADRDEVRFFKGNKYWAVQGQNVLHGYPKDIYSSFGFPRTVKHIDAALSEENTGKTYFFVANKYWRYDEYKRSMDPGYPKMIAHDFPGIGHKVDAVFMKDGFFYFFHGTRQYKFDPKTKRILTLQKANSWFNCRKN
Procedure, shortened: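 Inhibitor dilutions were made in 100 mM Tris-HCl/100 mM NaCl/10 mM CaCl2 buffer, pH 7.5, and incubated at room temperature with activated proenzyme (from transfected HT-1080 media; APMA or trypsin) and 4 μM quenched methoxycoumarin peptide substrate. Loss of 415 nm fluorescence (328 nm excitation) against concentration gave IC50.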

Human recombinant MMP-14 = molecular target: T2, Human recombinant MMP-14 (Homo sapiens, UniProt P50281)
T2 construct: The catalytic domain enzyme was expressed in E. coli inclusion bodies, solubilized in urea; made in house
Procedure, shortened: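 IC50 came from reduced fluorescence (ex 328 nm, em 415 nm) as inhibitor concentration rose, with 4 μM substrate I cleaved at Gly-Leu. Room-temperature incubation in pH 7.5 Tris buffer with 10 mM CaCl2; the E. coli-expressed, refolded MMP-14 catalytic domain was activated with trypsin or APMA.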

Human recombinant MMP-9 = molecular target: T3, Human recombinant MMP-9 (Homo sapiens, UniProt P14780)
T3 construct: made in house; host or cells: MMP-9-transfected HT1080 cells (spent media)
Procedure, shortened: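 Reduction in fluorescence (328 nm excitation, 415 nm emission) from cleavage of 4 μM quenched peptide substrate I, measured at room temperature against inhibitor concentration, gave IC50. Enzyme: trypsin- or APMA-activated MMP-9 purified from transfected HT1080 medium; buffer 100 mM Tris, 100 mM NaCl, 10 mM CaCl2, pH 7.5.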

Human recombinant MMP-2 = molecular target: T4, Human recombinant MMP-2 (Homo sapiens, UniProt P08253)
T4 construct: made in house; host or cells: MMP-2-transfected p2AHT2 cells
T4 sequence (P08253 110-660): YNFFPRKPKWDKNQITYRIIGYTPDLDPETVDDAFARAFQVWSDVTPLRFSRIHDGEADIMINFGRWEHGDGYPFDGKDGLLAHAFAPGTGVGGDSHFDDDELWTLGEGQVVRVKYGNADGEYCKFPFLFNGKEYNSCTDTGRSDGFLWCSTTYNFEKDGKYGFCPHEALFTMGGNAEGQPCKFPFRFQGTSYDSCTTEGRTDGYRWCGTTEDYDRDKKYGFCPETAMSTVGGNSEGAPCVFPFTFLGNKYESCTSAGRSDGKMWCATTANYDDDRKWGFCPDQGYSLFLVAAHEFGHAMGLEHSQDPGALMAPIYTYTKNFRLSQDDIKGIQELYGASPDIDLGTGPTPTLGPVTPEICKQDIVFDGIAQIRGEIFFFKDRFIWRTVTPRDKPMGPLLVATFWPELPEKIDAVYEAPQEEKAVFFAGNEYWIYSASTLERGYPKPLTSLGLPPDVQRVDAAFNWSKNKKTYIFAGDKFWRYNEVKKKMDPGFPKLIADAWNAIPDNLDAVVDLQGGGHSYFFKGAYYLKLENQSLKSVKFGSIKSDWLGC
Procedure, shortened: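 IC50 was derived from the concentration-dependent fall in fluorescence (ex 328, em 415 nm) on Gly-Leu cleavage of 4 μM MCA/Dpa-quenched substrate I. Assays ran at room temperature in pH 7.5 Tris/NaCl/CaCl2/Brij buffer with MMP-2 activated by trypsin or APMA; inhibitors were diluted from 1% DMSO stocks.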

Human recombinant MMP-13 = molecular target: T5, Human recombinant MMP-13 (Homo sapiens, UniProt P45452)
T5 construct: made in house; host or cells: baculovirus / insect cells
Procedure, shortened: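 Fluorescence at 415 nm (excitation 328 nm) reports Gly-Leu cleavage of 4 μM quenched methoxycoumarin peptide substrate I. Human recombinant MMP-13, activated by trypsin or APMA, was incubated at room temperature with varied inhibitor concentrations in pH 7.5 Tris/NaCl/CaCl2 buffer; IC50 derived from reduced fluorescence.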

T3 sequence (P14780 107-707 limits assumed): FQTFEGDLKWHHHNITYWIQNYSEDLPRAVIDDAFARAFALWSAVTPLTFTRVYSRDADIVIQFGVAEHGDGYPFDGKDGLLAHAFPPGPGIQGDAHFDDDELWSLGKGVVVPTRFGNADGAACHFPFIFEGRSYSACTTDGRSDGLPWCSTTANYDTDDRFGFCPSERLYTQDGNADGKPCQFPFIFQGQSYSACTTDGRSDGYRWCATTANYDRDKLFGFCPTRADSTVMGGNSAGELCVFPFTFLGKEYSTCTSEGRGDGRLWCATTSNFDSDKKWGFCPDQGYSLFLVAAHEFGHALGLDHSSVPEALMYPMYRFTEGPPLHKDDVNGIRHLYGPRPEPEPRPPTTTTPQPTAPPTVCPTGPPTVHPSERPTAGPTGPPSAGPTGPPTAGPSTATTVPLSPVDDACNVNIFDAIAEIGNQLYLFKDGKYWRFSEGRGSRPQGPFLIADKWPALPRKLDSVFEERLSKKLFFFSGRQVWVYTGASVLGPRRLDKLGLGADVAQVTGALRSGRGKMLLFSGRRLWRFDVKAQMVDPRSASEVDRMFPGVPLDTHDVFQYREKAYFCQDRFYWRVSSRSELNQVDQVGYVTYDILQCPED

Row | SMILES | pIC50 (Human recombinant MMP-1) | pIC50 (Human recombinant MMP-14) | pIC50 (Human recombinant MMP-9) | pIC50 (Human recombinant MMP-2) | pIC50 (Human recombinant MMP-13)
1 | O=C(NCCCOc1ccc(S(=O)(=O)C2(C(=O)NO)CCOCC2)cc1)c1cc2ccccc2cc1O [Example 376] | < 5.00 | < 5.00 | < 5.00 | 6.44 | 9.10
2 | O=C(NCCCOc1ccc(S(=O)(=O)C2(C(=O)NO)CCOCC2)cc1)c1cnc(Cl)c(Cl)c1 [Example 384] | < 5.00 | < 5.00 | 5.58 | 6.75 | 9.10
3 | O=C(NCCCOc1ccc(S(=O)(=O)C2(C(=O)NO)CCOCC2)cc1)c1cccnc1 [Example 385] | 5.36 | < 5.00 | < 5.00 | 6.60 | 8.48
4 | Cc1cc(C(=O)NCCCOc2ccc(S(=O)(=O)C3(C(=O)NO)CCOCC3)cc2)no1 [Example 386] | < 5.00 | 5.01 | 7.45 | 6.88 | 8.92
5 | O=C(NCCCOc1ccc(S(=O)(=O)C2(C(=O)NO)CCOCC2)cc1)c1cnc2ccccc2c1 [Example 390] | < 5.00 | < 5.00 | < 5.00 | 6.04 | 8.57
6 | CCCC(C)C(=O)NCCCOc1ccc(S(=O)(=O)C2(C(=O)NO)CCOCC2)cc1 (stereo not drawn) [Example 403] | < 5.00 | < 5.00 | < 5.00 | 6.34 | 8.28
7 | O=C(NCCCOc1ccc(S(=O)(=O)C2(C(=O)NO)CCOCC2)cc1)C12CC3CC(CC(C3)C1)C2 [Example 405] | < 5.00 | < 5.00 | < 5.00 | 5.63 | 8.72
8 | CN(C)c1ccc(C(=O)NCCCOc2ccc(S(=O)(=O)C3(C(=O)NO)CCN(C4CC4)CC3)cc2)cc1 [Example 406] | < 5.00 | < 5.00 | < 5.00 | 5.66 | 8.40
9 | O=C(NO)C1(S(=O)(=O)c2ccc(OCCCSc3nc4ccc(Cl)cc4o3)cc2)CCOCC1 [Example 408] | < 5.00 | 5.17 | 7.31 | 7.05 | 8.60
10 | O=C(NO)C1(S(=O)(=O)c2ccc(OCCSc3nc4c(Cl)cc(Cl)cc4o3)cc2)CCOCC1 [Example 409] | < 5.00 | 5.25 | 6.80 | 7.64 | 9.00
11 | O=C(NO)C1(S(=O)(=O)c2ccc(OCCSc3nc4ccccc4o3)cc2)CCOCC1 [Example 410] | 5.33 | 6.29 | 6.69 | 7.92 | 8.96
12 | Cc1ccc2c(c1)CCCN2CCCCCOc1ccc(S(=O)(=O)C2(C(=O)NO)CCOCC2)cc1 [Example 415] | < 5.00 | < 5.00 | 5.75 | 7.29 | 7.82
13 | COc1ccc(C(=O)N2CCC(COc3ccc(S(=O)(=O)C4(C(=O)NO)CCOCC4)cc3)CC2)cc1 [Example 420] | < 5.00 | < 5.00 | < 5.00 | 7.17 | 8.40
14 | COc1ccc(OCCCOc2ccc(S(=O)(=O)C3(C(=O)NO)CCN(C4CC4)CC3)cc2)cc1 [Example 442] | < 5.00 | 6.00 | 8.27 | 8.21 | 8.74
15 | O=C(NO)C1(S(=O)(=O)c2ccc(OCCCOc3cccc(C(F)(F)F)c3)cc2)CCN(C2CC2)CC1 [Example 443] | < 5.00 | 5.61 | 6.43 | 7.60 | 8.46

The remaining lines, values ahead:

Row | pIC50 (Human recombinant MMP-1) | pIC50 (Human recombinant MMP-14) | pIC50 (Human recombinant MMP-9) | pIC50 (Human recombinant MMP-2) | pIC50 (Human recombinant MMP-13) | SMILES
16 | < 5.00 | < 5.00 | 5.02 | 5.96 | 8.62 | Cc1ccc(C(=O)NCCCOc2ccc(S(=O)(=O)C3(C(=O)NO)CCOCC3)cc2)cc1C [Example 371]
17 | < 5.00 | < 5.00 | 5.40 | 6.03 | 8.15 | Cc1ccc(C(=O)NCCCOc2ccc(S(=O)(=O)C3(C(=O)NO)CCOCC3)cc2)c(C)c1 [Example 373]
18 | < 5.00 | < 5.00 | < 5.00 | < 5.00 | 7.40 | COc1ccc(C(=O)NCC(C)(C)COc2ccc(S(=O)(=O)C3(C(=O)NO)CCOCC3)cc2)cc1 [Example 392]
19 | < 5.00 | < 5.00 | < 5.00 | 5.82 | 7.19 | COc1ccc(NC(=O)NCCOc2ccc(S(=O)(=O)C3(C(=O)NO)CCOCC3)cc2)cc1 [Example 418]
20 | < 5.00 | < 5.00 | < 5.00 | < 5.00 | 7.05 | CC(C)(COc1ccc(S(=O)(=O)C2(C(=O)NO)CCOCC2)cc1)CSc1ccccc1 [Example 437]
21 | < 5.00 | < 5.00 | 5.42 | 6.30 | 7.96 | CC(C)(COc1ccc(S(=O)(=O)C2(C(=O)NO)CCOCC2)cc1)CS(=O)(=O)Cc1ccccc1 [Example 438]
22 | < 5.00 | < 5.00 | 5.22 | 5.70 | 7.60 | O=C(NO)C1(S(=O)(=O)c2ccc(OCCCSCc3ccccc3)cc2)CCOCC1 [Example 439]
23 | < 5.00 | 5.60 | 6.85 | 8.40 | 9.00 | CC(C)(COc1ccc(S(=O)(=O)C2(C(=O)NO)CCOCC2)cc1)CS(=O)(=O)Cc1cccc(OC(F)(F)F)c1 [Example 440]
24 | 5.05 | 5.64 | 6.96 | 7.89 | 8.70 | O=C(NO)C1(S(=O)(=O)c2ccc(OCCCSCc3cccc(OC(F)(F)F)c3)cc2)CCOCC1 [Example 441]
25 | 5.48 | 6.26 | 7.36 | 8.66 | 9.30 | O=C(NO)C1(S(=O)(=O)c2ccc(OCCCOc3ccc(F)cc3F)cc2)CCOCC1 [Example 445]
26 | < 5.00 | 5.87 | 7.91 | 8.05 | 8.70 | COc1ccc(OCCCOc2ccc(S(=O)(=O)C3(C(=O)NO)CCOCC3)cc2)cc1 [Example 447]
27 | 5.51 | 6.08 | 6.94 | 8.05 | 8.57 | O=C(NO)C1(S(=O)(=O)c2ccc(OCCCOc3ccc4ccccc4c3)cc2)CCOCC1 [Example 448]
28 | 5.71 | 7.24 | 7.39 | 8.43 | 8.15 | O=C(NO)C1(S(=O)(=O)c2ccc(OCCCO)cc2)CCOCC1 [Example 449]
29 | < 5.00 | 5.31 | 7.36 | 8.18 | 9.05 | COc1ccc(OCCCCOc2ccc(S(=O)(=O)C3(C(=O)NO)CCOCC3)cc2)cc1 [Example 450]
30 | < 5.00 | 5.30 | 6.10 | 7.89 | 8.52 | COc1cc(COCCCOc2ccc(S(=O)(=O)C3(C(=O)NO)CCOCC3)cc2)cc(OC)c1 [Example 453]
